pKi: −log10 of the molar value. Counter-ions that a name gives are not always drawn.

Usually pKi stands for −log10 of the Ki, conventionally taken in molar units.

The target of the assay is rhesus (Macacca Mulatta) H3 receptor (Macaca mulatta, UniProt Q865E1). The assay is described as follows: Rhesus H3 radioligand binding assay ([3H]-Methylhistamine displacement, WGA SPA beads). More on the design: species or system rhesus monkey (Macacca Mulatta). To be noted: [3H]-Methylhistamine 2 nM, rhesus H3 membranes, 25° C., 1 hour; Cheng-Prusoff. The procedure: Rhesus H3 membranes were prepared from the Flp-In T-REx 293 Cell Line (Invitrogen) stably transfected with pcDNA5/FRT/TO (Invitrogen) containing the rhesus monkey (Macacca Mulatta) 445 amino acid H3 receptor. (Genbank #AY231164). Stably transfected cultures were amplified in tissue culture flasks by standard tissue culture methods and induced to express rhesus H3 by exposure to 500 ng/ml tetracycline (Cellgro) for 24 hours. After induction, cells were dissociated from flasks utilizing Cell Stripper (Cellgro). Cells were centrifuged (1K×g, 5 min) and pellet frozen in an ethanol-dry ice bath to disrupt cell membranes. Frozen cell pellet was re-suspended in 5 mM HEPES (pH 7.4, Invitrogen) at 10 ml/1000 cm2 of harvested cells. The cell suspension was drawn through an 18 gauge needle (2-3×) followed by a 23 gauge needle (2-3×) to further disrupt cell membranes. The cell suspension was centrifuged (40K×g, 30 min). Cell membrane pellet was re-suspended in 5 mM HEPES (pH 7.4, Invitrogen) at a final protein concentration of 10 mg/ml. Rhesus H3 membranes were stored under liquid nitrogen prior to use in [3H]-Methylhistamine and GTPγS radioligand binding assays.
Chain of rhesus (Macacca Mulatta) H3 receptor (Q865E1 1-445): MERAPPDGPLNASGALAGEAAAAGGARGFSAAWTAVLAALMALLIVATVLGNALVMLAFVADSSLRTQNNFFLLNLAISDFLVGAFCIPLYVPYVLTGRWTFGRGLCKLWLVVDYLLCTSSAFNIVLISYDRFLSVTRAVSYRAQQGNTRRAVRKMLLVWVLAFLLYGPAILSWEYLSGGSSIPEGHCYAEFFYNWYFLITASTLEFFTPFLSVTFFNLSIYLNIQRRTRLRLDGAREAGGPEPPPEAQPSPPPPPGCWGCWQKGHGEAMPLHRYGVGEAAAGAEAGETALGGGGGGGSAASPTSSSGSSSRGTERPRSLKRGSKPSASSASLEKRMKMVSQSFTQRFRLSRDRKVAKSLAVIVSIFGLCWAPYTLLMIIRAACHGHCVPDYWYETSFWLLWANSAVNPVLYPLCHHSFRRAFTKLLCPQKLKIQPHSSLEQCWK
Rhesus H3 radioligand binding assay was performed using rhesus H3 receptor membranes (prepared as described above), [3H]-Methylhistamine (Perkin Elmer) and WGA SPA beads (wheat germ agglutinin scintillation proximity assay) beads (Amersham). The assay was performed in 96-well Opti-Plates (Packard). Each reaction contained 50 μl rhesus H3 membranes (20-30 μg total protein), 50 μl WGA SPA beads (0.1 μg) and 50 μl of 83 Ci/mmol [^3H]-Methylhistamine (final concentration 2 nM) and 50 μl of tested compound. The compounds of this invention and/or vehicle were diluted with binding buffer from 10 mM DMSO stocks. Assay plates were sealed with TopSeal (Perkin Elmer) and mixed on shaker (25° C., 1 hour). Assay plates were read on TopCount scintillation counter (Packard). Results were analyzed by Hill transformation and Ki values were determined by Cheng-Prusoff equation.
Molecule `Cc1nc(N2CC[C@@H](N3CCC[C@@H]3C)C2)ccc1N1CCC2(CCNCC2)C1=O` [Example 8, 2-[2-Methyl-6-((2S,3′R)-2-methyl-[1,3′]bipyrrolidinyl-1′-yl)-pyridin-3-yl]-2,8-diaza-spiro[4.5]decan-1-one hydrochloride] showed a pKi of 7.76. With `C[C@H]1CCCN1[C@H]1CCN(c2ncc(N3CCC4(CCN(C(=O)OC(C)(C)C)CC4)C3=O)cn2)C1` [Example 12, 2-[2-((2S,3′S)-2-Methyl-[1,3′]bipyrrolidinyl-1′-yl)-pyrimidin-5-yl]-1-oxo-2,8-diaza-spiro[4.5]decane-8-carboxylic acid tert-butyl ester], the pKi is 7.31.

Consider `Cc1nc(N2CC[C@@H](N3CCC[C@@H]3C)C2)ccc1N1CCCC2(CCNCC2)C1=O` [Example 9, 2-[2-Methyl-6-((2S,3′R)-2-methyl-[1,3′]bipyrrolidinyl-1′-yl)-pyridin-3-yl]-2,9-diaza-spiro[5.5]undecan-1-one hydrochloride], for which the pKi was 7.41. With `C[C@H]1CCCN1[C@H]1CCN(c2ncc(N3CCC4(CCOCC4)C3=O)cn2)C1` [Example 16, 2-[2-((2S,3′S)-2-Methyl-[1,3′]bipyrrolidinyl-1′-yl)-pyrimidin-5-yl]-8-oxa-2-aza-spiro[4.5]decan-1-one], the pKi is 8.38.

As to `Cc1nc(N2CC[C@H](N3CCC[C@@H]3C)C2)ccc1N1CCC2(CCN(C(=O)OC(C)(C)C)CC2)C1=O` [Example 15, 2-[2-Methyl-6-((2S,3′S)-2-methyl-[1,3′]bipyrrolidinyl-1′-yl)-pyridin-3-yl]-1-oxo-2,8-diaza-spiro[4.5]decane-8-carboxylic acid tert-butyl ester], the pKi was 7.02.

In the case of `C[C@H]1CCCN1[C@H]1CCN(c2ccc(N3CCC4(CCOCC4)C3=O)nc2)C1` [Example 13, 2-[5-((2S,3′S)-2-Methyl-[1,3′]bipyrrolidinyl-1′-yl)-pyridin-2-yl]-8-oxa-2-aza-spiro[4.5]decan-1-one], the pKi is 7.65.

For the molecule `Cc1nc(N2CC[C@@H](N3CCC[C@@H]3C)C2)ccc1N1CCC2(CCC(O)CC2)C1=O` (stereo partly drawn) [Example 5, 8-Hydroxy-2-[2-methyl-6-((2S,3′R)-2-methyl-[1,3′]bipyrrolidinyl-1′-yl)-pyridin-3-yl]-2-aza-spiro[4.5]decan-1-one], the pKi was 6.57. Under `C[C@H]1CCCN1[C@H]1CCN(c2cnc(N3CCC4(CCNCC4)C3=O)cn2)C1` [Example 10, 2-[5-((2S,3′S)-2-Methyl-[1,3′]bipyrrolidinyl-1′-yl)-pyrazin-2-yl]-2,8-diaza-spiro[4.5]decan-1-one] stands 7.58; under `Cc1nc(N2CC[C@@H](N3CCC[C@@H]3C)C2)ccc1N1CCC2(CCCCC2)C1=O` [Example 6, 2-[2-Methyl-6-((2S,3′R)-2-methyl-[1,3′]bipyrrolidinyl-1′-yl)-pyridin-3-yl]-2-aza-spiro[4.5]decan-1-one], 7.25. Take `C[C@H]1CCCN1[C@H]1CCN(c2cnc(N3CCC4(CCN(C(=O)OC(C)(C)C)CC4)C3=O)cn2)C1` [Example 14, 2-[5-((2S,3′S)-2-Methyl-[1,3′]bipyrrolidinyl-1′-yl)-pyrazin-2-yl]-1-oxo-2,8-diaza-spiro[4.5]decane-8-carboxylic acid tert-butyl ester]: the pKi is 6.98. In turn, `Cc1nc(N2CC[C@H](N3CCC[C@@H]3C)C2)ccc1N1CCC2(CCOCC2)C1=O` [Example 7, 2-[2-Methyl-6-((2S,3′S)-2-methyl-[1,3′]bipyrrolidinyl-1′-yl)-pyridin-3-yl]-8-oxa-2-aza-spiro[4.5]decan-1-one] had a pKi of 8.15. `Cc1nc(N2CC[C@@H](N3CCC[C@@H]3C)C2)ccc1N1CCC2(CCOCC2)C1=O` [Example 1, 2-[2-Methyl-6-((2S,3′R)-2-methyl-[1,3′]bipyrrolidinyl-1′-yl)-pyridin-3-yl]-8-oxa-2-aza-spiro[4.5]decan-1-one]: the pKi is 7.42. As to `Cc1nc(N2CC[C@@H](N3CCC[C@@H]3C)C2)ccc1N1CCCC2(CCOCC2)C1=O` [Example 2, 2-[2-Methyl-6-((2S,3′R)-2-methyl-[1,3′]bipyrrolidinyl-1′-yl)-pyridin-3-yl]-9-oxa-2-aza-spiro[5.5]undecan-1-one], the pKi was 7.02. With `Cc1nc(N2CC[C@H](N3CCC[C@@H]3C)C2)ccc1N1CCC2(CCNCC2)C1=O` [Example 11, 2-[2-Methyl-6-((2S,3′S)-2-methyl-[1,3′]bipyrrolidinyl-1′-yl)-pyridin-3-yl]-2,8-diaza-spiro[4.5]decan-1-one] the figure was 8.12.

Source of the values: US9533995B2, “Substituted N-heteroaryl spirolactam bipyrrolidines, preparation and therapeutic use thereof” (SANOFI, priority 2010, dated 2017).
